Data on 26 compounds can be found in PubChem BioAssay AID1626 (SRMLSC, 2009).

In general, IC50 refers to the concentration at which inhibition is half-maximal. In general, IC90 refers to the concentration at which the effect reaches the 90% level. A high value points to weaker potency. What is called CC50 is the concentration at which the toxic effect on the cells reaches its halfway point. A low value points to harm at low concentration.

This test relates to M. tuberculosis H37Rv growth inhibition. Briefly: M. tuberculosis H37Rv growth inhibitors, H37Rv strain (AID 1626). The note with it: for IC90: measured here: IC90 against H37Rv; for CC50: measured here: Vero cell cytotoxicity.

The structures appear in SMILES notation.

On to `O=C(OCC(=O)N1CCc2ccccc21)c1ccc(Cl)nc1`, for which the half-maximal inhibitory concentration (IC50) is 14.2 µM and the IC90 is over 100 µM.
As to `Nc1nc(F)nc2c1ncn2[C@@H]1O[C@H](CO)[C@@H](O)[C@H]1O`, the IC50 is 2.65 µM, the concentration for an effect of 90% (IC90) stood at 3.95 µM and the CC50 was 0.218 µM.
As to `c1ccc(C2=Nc3ccccc3OC2)cc1`, the IC50 was 4.73 µM and the IC90 was determined as 8.31 µM.
As to `CCCCCOC(=O)c1ccc(OC(=O)c2cncc(Br)c2)cc1`, the IC50 is 11.6 µM and the IC90 is over 100 µM.
In the case of `CC1CCN(c2nc(CN3CCCCC3)nc3scc(-c4ccccc4)c23)CC1`, the concentration for half-maximal inhibition (IC50) was 9.11 µM, the IC90 worked out at 11.9 µM and the cytotoxic concentration (CC50) came out at 34.9 µM.
With `C=CCNc1nnc(Sc2ncccc2[N+](=O)[O-])s1`, the half-maximal inhibitory concentration (IC50) was 3.96 µM and the IC90 was determined as 6.01 µM.
As to `COc1ccc(CCNCC(O)Cn2c3ccccc3c3ccccc32)cc1OC` (centres undefined), the IC50 was 10.6 µM, the concentration for an effect of 90% (IC90) is 15.2 µM and the CC50 is 11.8 µM.
For the compound `COc1ccc2cc(C(=O)C3CCCN(Cc4cnc(C)s4)C3)ccc2c1` (centres undefined), the half-inhibitory concentration (IC50) was 13.6 µM and the IC90 is over 100 µM.
With `CCOC(=O)c1sc2nc(C)[nH]c(=S)c2c1C`, the IC50 was 39.1 µM and the IC90 is over 100 µM.
As for `CCOC(=O)N1CCN(c2nc(N(c3ccccc3)c3ccccc3)nc(-n3ccnc3)n2)CC1`, the IC50 was 8.91 µM, the IC90 came out at 11.3 µM and the 50% cytotoxic concentration (CC50) was over 40 µM.
On to `CN(C)c1ccc(N=Nc2ccccc2C(=O)OCC(=O)NCC2CCCCC2)cc1`, for which the IC50 was 7.74 µM and the 90% effect concentration (IC90) was 17.2 µM.
On to `Cc1ccc2nc(Cl)c3nnnn3c2c1`, for which the IC50 is 11.9 µM, the IC90 worked out at 17 µM and the CC50 was over 40 µM.
`CCOc1ccc(NC(=O)CN2CCN(CC(=O)Nc3ccc(Cl)c(C(F)(F)F)c3)CC2)cc1`: the half-inhibitory concentration (IC50) is 7.93 µM, the IC90 is 11.3 µM and the CC50 is 20.8 µM.
Turning to `CC(=O)CC1(OC(C)=O)C(=O)N(C)c2ccccc21` (centres undefined), the IC50 is 5.34 µM, the IC90 came to 5.89 µM and the CC50 stood at 24.3 µM.
`Cc1nc2cc(C(=O)OCC(=O)NC34CC5CC(CC(C5)C3)C4)ccc2n1-c1ccccc1`: the IC50 is 7.9 µM and the IC90 was found to be 12.1 µM.
Regarding `Cn1ccnc1C(O)c1cc(C(C)(C)C)c(O)c(C(C)(C)C)c1` (centres undefined), the 50% inhibitory concentration (IC50) is 10.3 µM and the concentration for an effect of 90% (IC90) was 13.8 µM.
With `O=C(COc1cccc(Cl)c1)Nc1ccc2c(c1)CCC2`, the IC50 was 22.4 µM and the IC90 was over 100 µM.
Turning to `Cn1c(NC(=O)c2ccccc2NC(=O)C(C)(C)C)nc2ccccc21`, the cytotoxic concentration (CC50) is over 40 µM.
As for `CCCCCCCCCCNC(=O)C(=O)Nc1ccccn1`, the IC50 is 6.97 µM and the 90% effect concentration (IC90) is over 100 µM.
On to `Cc1ccccc1Nc1c(-c2ccccn2)nc2c(C)cccn12`, for which the half-maximal inhibitory concentration (IC50) is 20.5 µM, the concentration for an effect of 90% (IC90) is over 100 µM and the CC50 worked out at 29 µM.
Consider `O=C(Nc1ccc(Nc2ccncc2)cc1)c1ccc(Nc2ccnc3ccc([N+](=O)[O-])cc23)cc1[N+](=O)[O-]`, for which the 50% inhibitory concentration (IC50) is 1.39 µM, the IC90 was found to be 1.57 µM and the CC50 was over 40 µM.
With `Cc1cc(C(=O)CCl)c(C)n1Cc1ccco1`, the IC50 was 3.34 µM, the IC90 is 8.28 µM and the cytotoxic concentration (CC50) came to 12.1 µM.
For `Cc1cc(NC(=O)c2c(F)cccc2F)n(-c2nc3ccccc3[nH]2)n1` the same measures were 11.3 µM, 21.2 µM and 35.7 µM.
Turning to `N#C/C(=C(/O)COC(=O)CCC1CCCCC1)c1nc2ccccc2[nH]1`, the 50% inhibitory concentration (IC50) was 20.2 µM, the 90% effect concentration (IC90) turned out to be 25.1 µM and the CC50 was over 40 µM.
Regarding `O=C1CCCCc2sc(Br)c([N+](=O)[O-])c2N1`, the IC50 was 8.43 µM, the IC90 was found to be 15.4 µM and the half-maximal cytotoxic concentration (CC50) came out at 14.4 µM.
Regarding `O=C(c1cc(COc2ccc(F)cc2Cl)on1)N1CCC(OCc2cccnc2)CC1`, the IC90 is over 100 µM and the CC50 is 8.01 µM.
